Legend:
[1] = test system: AREc32 reporter cell line (antioxidant response element of rat Gsta2, Nrf2 target gene); assay: AREc32 luciferase reporter activation; assay type: cell-based, human; conditions: for AREc32 EC2X Relative to RTA 402 (fold) (Mean ± SD): average of ratios from replicate experiments, benchmark RTA 402; for EC (2-fold): human, Arec32, 19 h, concentration increasing luminescence signal 2-fold above vehicle, nineteen hours, read-out: AREc32 EC2X (nM) (Mean ± SD); for AREc32 Relative to CC in Same Experiment (Mean ± SD): average of ratios from experiments with direct comparisons
Protocol: […] The effect of several compounds disclosed herein on luciferase reporter activation was assessed in the AREc32 reporter cell line (see Table 10 and Table 11). This cell line is derived from human breast carcinoma MCF-7 cells and is stably transfected with a luciferase reporter gene under the transcriptional control of eight copies of the antioxidant response element from the rat Gsta2 gene, an Nrf2 target gene ([…] et al., 1990). […] Twenty-four hours after plating, cells were treated with vehicle (DMSO) or test compounds at concentrations ranging from 0.03 to 1000 nM for nineteen hours. Media was removed and 100 μL of 1:1 mixture of the One-Glo Luciferase assay reagent and culture medium was added to each well. After incubation for 5 min at room temperature, the luminescence signal was measured on a PHERAstar plate reader. The EC2X value was determined using Excel and GraphPad Prism software. The fold increase in luminescence signal for cells treated with each concentration of compound relative to cells treated with vehicle was determined and a dose-response curve was generated. The dose-response curve was fit using nonlinear regression analysis and used to extrapolate the EC2X value.

[2] = test system: AML-12 hepatocyte cell line; assay: Glutathione assay (total glutathione, GSH-Glo); assay type: cell-based, mouse; conditions: for EC50: Mus musculus, AML12, AML-12 cells, 24 hours, total glutathione, read-out: GSH EC50 (nM) (Mean ± SD); for GSH EC50 Relative to RTA 402 (fold) (Mean ± SD): benchmark RTA 402
Protocol: The effect of compound treatment on total glutathione levels was evaluated in the mouse AML-12 hepatocyte cell line. Glutathione—a tripeptide consisting of cysteine, glutamate, and glycine—is the major thiol-containing protein within the cell and regulates cellular redox balance. Glutathione also plays important roles in detoxification, protein glutathionylation, and iron-sulfur cluster biogenesis (Bachhawat and Yadav, 2018). Nrf2 regulates the expression of many genes involved in glutathione synthesis and metabolism, including both subunits of glutamate cysteine ligase (GCL), the enzyme that catalyzes the rate limiting step of glutathione biosynthesis (Thimmulappa et al., 2002). […] The next day, cells were treated with vehicle (DMSO) or test compound (0.03 nM to 1000 nM). Each well received a final concentration of 0.1% DMSO. Cells were incubated at 37° C., 5% CO2 for 24 hours. Total glutathione concentrations were measured using the GSH-Glo Glutathione Assay kit (Promega) according to the manufacturer's instructions. Briefly, a standard curve was prepared by serially diluting the provided glutathione solution. […] After a 30-minute incubation at room temperature, 100 μL of Luciferin detection reagent was added to all sample and standard wells and incubated for 15 minutes. Luminescence was measured using a PHERAstar plate reader. The EC50 value was determined using Excel and GraphPad Prism software. The basal concentration of glutathione was set to 0% and the highest concentration of glutathione produced following treatment with a test compound was set to 100% and a dose-response curve was generated. The dose-response curve was fit using nonlinear regression analysis and used to extrapolate the EC50 value.

RAW 264.7 cells = assay: Nitric oxide suppression assay (IFNγ-induced NO production); assay type: cell-based, mouse; conditions: for IC50: Mus musculus, RAW264.7, RAW 264.7 cells, 2 h pretreatment, 20 ng/mL interferon gamma 24 h, nitrite by Griess, read-out: NO IC50 (nM) (Mean ± SD); for NO IC50 Relative to RTA 402 (fold) (Mean ± SD): average of ratios from replicate experiments, benchmark RTA 402
Protocol: Tissue Culture. RAW 264.7, a mouse macrophage cell line, was obtained from American Type Culture Collection (Manassas VA) and maintained in the log phase of growth in Roswell Park Memorial Institute Medium 1640 (RPMI 1640) supplemented with 10% heat inactivated fetal bovine serum (FBS) and 1% penicillin-streptomycin. Cells were cultured and maintained in a humidified incubator at 37° C. under 5% CO2. Cells were sub-cultured every 3 days. […] All cell culture supplies were obtained from Life Technologies (Grand Island, NY) and VWR (Radnor, PA). Nitric Oxide Suppression Assay. RAW 264.7 cells were plated 1 day in advance of experimental treatments at a concentration of 30,000 cells per well onto Falcon-96 well clear bottom plates (Corning, NY) in a total volume of 200 μL per well using RPMI 1640 supplemented with 0.5% fetal bovine serum and 1% penicillin-streptomycin. The next day, cells were pretreated with compounds serially diluted from 1000× stocks. All compounds were dissolved in dimethyl sulfoxide (DMSO) at 10 mM stock solutions. Compounds were subsequently diluted in DMSO and RPMI 1640. Each well received a final concentration of 0.1% DMSO. Cells were pretreated for 2 hours and incubation at 37° C., followed by treatment with 20 ng/mL of interferon gamma (R&D Systems, Minneapolis, MN) per well for 24 hours. […] Afterwards, 50 μL of cell culture supernatant was transferred from each well into a new Falcon-96 well clear bottom plate. […] Afterwards, air bubbles were removed using ethanol vapor and absorbance was measured using a Spectramax M2e plate reader with a wavelength set to 525 nm. Viability was assessed using WST-1 cell proliferation reagent from Roche (Basel, Switzerland). After media was removed for the Nitric Oxide suppression assay, 15 μL of WST-1 reagent was added to each well of cells. Plates were briefly mixed on an orbital shaker and the cells were incubated at 37° C. for 30 minutes. Absorbance was measured using a Spectramax M2e plate reader with wavelengths set to 440 nm and 700 nm. For the ability of compounds to suppress the increase in nitric oxide release caused by interferon gamma, the absolute amount of nitrite that was produced in each well was extrapolated from the nitrite standards using a linear regression fit. All values were then normalized to the DMSO-interferon gamma treated wells and plotted as percent nitric oxide. IC50 values were calculated with a dependence on WST1 viability using Excel and/or GraphPad Prism (San Diego, CA).

Row | SMILES | AREc32 EC2X Relative to RTA 402 (fold) (Mean ± SD) [1] | EC (2-fold) [1] | EC50 [2] | GSH EC50 Relative to RTA 402 (fold) (Mean ± SD) [2] | IC50 (RAW 264.7 cells) | NO IC50 Relative to RTA 402 (fold) (Mean ± SD) (RAW 264.7 cells) | AREc32 Relative to CC in Same Experiment (Mean ± SD) ([1]; comparison compound CC3) | AREc32 Relative to CC in Same Experiment (Mean ± SD) ([1]; comparison compound CC2) | AREc32 Relative to CC in Same Experiment (Mean ± SD) ([1]; comparison compound CC1)
1 | CC1(C)CC[C@]2(c3noc(CO)n3)CC[C@]3(C)[C@H](C(=O)C=C4[C@@]5(C)C=C(C#N)C(=O)C(C)(C)[C@@H]5CC[C@]43C)[C@@H]2C1 [Compound T4] | 1.04 ± 0.02 fold | 10.5 ± 1.03 nM | 2.46 ± 1.8 nM | 0.89 ± 0.61 fold | 1.82 nM | 0.48 ± 0.13 fold | – | – | –
2 | CC1(C)CC[C@]2(c3noc(CCO)n3)CC[C@]3(C)[C@H](C(=O)C=C4[C@@]5(C)C=C(C#N)C(=O)C(C)(C)[C@@H]5CC[C@]43C)[C@@H]2C1 [Compound T5] | 1.16 ± 0.19 fold | 11.7 ± 2.8 nM | 1.77 ± 0.98 nM | 0.65 ± 0.32 fold | 1.57 nM | 0.42 ± 0.15 fold | – | – | –
3 | CC1(C)CC[C@]2(c3noc(C4CC4)n3)CC[C@]3(C)[C@H](C(=O)C=C4[C@@]5(C)C=C(C#N)C(=O)C(C)(C)[C@@H]5CC[C@]43C)[C@@H]2C1 [Compound T25] | 4.39 ± 0.23 fold | 44 ± 1.2 nM | 9.07 ± 1.55 nM | 3.36 ± 0.34 fold | 11.2 ± 2.09 nM | 3.08 ± 1.54 fold | – | – | –
4 | COCCc1nc([C@]23CCC(C)(C)C[C@H]2[C@H]2C(=O)C=C4[C@@]5(C)C=C(C#N)C(=O)C(C)(C)[C@@H]5CC[C@@]4(C)[C@]2(C)CC3)no1 [Compound T6] | 1.77 ± 0.15 fold | 17.66 ± 0.1 nM | 2.9 ± 0.96 nM | 1.07 ± 0.28 fold | 2.95 ± 0.11 nM | 0.79 ± 0.29 fold | – | – | –
5 | C[C@@H]1C(=O)C(C#N)=C[C@]2(C)C3=CC(=O)[C@@H]4[C@@H]5CC(C)(C)CC[C@]5(c5nc(C(F)F)no5)CC[C@@]4(C)[C@]3(C)CC[C@@H]12 [Compound T35] | 0.73 ± 0.14 fold | 10.7 ± 1.02 nM | 1.99 ± 0.42 nM | 1.02 ± 0.04 fold | 5.48 ± 3.04 nM | 1.21 ± 0.21 fold | 1.66 ± 0.31 | – | –
6 | CC1(C)CC[C@]2(c3nnn(CCO)n3)CC[C@]3(C)[C@H](C(=O)C=C4[C@@]5(C)C=C(C#N)C(=O)C(C)(C)[C@@H]5CC[C@]43C)[C@@H]2C1 [Compound T7] | 1.10 ± 0.33 fold | 10.5 ± 3.66 nM | 2.87 ± 3.17 nM | 0.80 ± 0.59 fold | 1.13 ± 0.18 nM | 0.43 ± 0.13 fold | – | – | –
7 | CC1(C)CC[C@]2(c3noc(C(F)(F)F)n3)CC[C@]3(C)[C@H](C(=O)C=C4[C@@]5(C)C=C(C#N)C(=O)C(C)(C)[C@@H]5CC[C@]43C)[C@@H]2C1 [Compound T40] | 4.76 ± 0.93 fold | 64.9 ± 12.6 nM | 18.3 ± 2.19 nM | 8.96 ± 0.68 fold | 24.2 ± 7.64 nM | 7.76 ± 2.19 fold | – | – | –
8 | CC1(C)CC[C@]2(c3nc(CCO)no3)CC[C@]3(C)[C@H](C(=O)C=C4[C@@]5(C)C=C(C#N)C(=O)C(C)(C)[C@@H]5CC[C@]43C)[C@@H]2C1 [Compound T13] | 0.37 ± 0.04 fold | 3.53 ± 0.98 nM | 2.04 ± 1.94 nM | 0.55 ± 0.33 fold | 0.56 nM | 0.22 ± 0.07 fold | – | 0.44 ± 0.07 | –
9 | C[C@@H]1C(=O)C(C#N)=C[C@]2(C)C3=CC(=O)[C@@H]4[C@@H]5CC(C)(C)CC[C@]5(c5nc(C(F)(F)F)no5)CC[C@@]4(C)[C@]3(C)CC[C@@H]12 [Compound T36] | 2.25 ± 0.31 fold | 33.7 ± 6.99 nM | 10.4 ± 1.62 nM | 5.40 ± 0.54 fold | 17.8 ± 9.89 nM | 3.95 ± 0.84 fold | – | – | –
10 | CC1(C)CC[C@]2(c3nnc(C(F)F)o3)CC[C@]3(C)[C@H](C(=O)C=C4[C@@]5(C)C=C(C#N)C(=O)C(C)(C)[C@@H]5CC[C@]43C)[C@@H]2C1 [Compound T44] | 0.57 ± 0.12 fold | 8.62 ± 0.45 nM | 2.05 ± 0.64 nM | 1.04 ± 0.06 fold | 4.24 ± 2.23 nM | 1.24 ± 0.04 fold | – | – | 0.91 ± 0.21
11 | CCc1nc([C@]23CCC(C)(C)C[C@H]2[C@H]2C(=O)C=C4[C@@]5(C)C=C(C#N)C(=O)C(C)(C)[C@@H]5CC[C@@]4(C)[C@]2(C)CC3)no1 [Compound T24] | 2.50 ± 0.66 fold | 32.2 ± 2.59 nM | 6.11 ± 2.23 nM | 2.53 ± 0.52 fold | 9.21 nM | 2.56 ± 0.62 fold | – | – | –
